The text below walks through data of patent US6228866A, “Condensed piperidine compound” (Ono Pharmaceutical Co., Ltd., priority 1997, dated 2001).

What is called IC50 is the concentration needed to halve the response being measured. Lower therefore signals inhibition by little substance.

This assay has as its target T1, i-NOS (Homo sapiens, UniProt P35228).
T1 construct: The supernatant was collected as a source of i-NOS; endogenous in cells; host or cells: A549 (human lung epithelial cell line), stimulated with LPS, TNF-alpha, IL-1beta and IFN-gamma; sonicated, 54,000 rpm supernatant
As to the kind of experiment: i-NOS Inhibition Test. Format: biochemical. Conditions: i-NOS from supernatant of A549 cells stimulated with LPS, TNF-α, IL-1β, INF-γ; 14C-L-arginine substrate; 37° C., 10 minutes; pH 7.8. The method, then:
The pharmacological activity of the compound of formula (I) according to the present invention on i-NOS was examined by the following test.
To human lung epithelial cell line of A549 were added 10 μg/ml of lipopolysaccharide (LPS), 10 ng/ml of tumor necrosis factor-α (TNF-α), 5 ng/ml of interleukin-1β (IL-1β), and 100 ng/ml of interferon-γ (INF-γ). Sixteen hours later the cells were ruptured by ultrasonication and centrifuged at 54,000 rpm. The supernatant was collected as a source of i-NOS.
i-NOS was made to act on ^14 C-labeled L-arginine as a substrate, and L-citrulline produced in the presence of the compound of the invention was determined to calculate the 50% inhibitory concentration of the test compound. More specifically, 10 μl of a 16.8 μM solution of L-[U-^14 C]arginine, 10 μl of the above-prepared i-NOS source, and 10 μl of varied amount of a test compound were added to 70 μl of a solution comprising 50 mM HEPES (N-2-hydroxyethylpiperazine-N'-2-ethanesulfonic acid) (pH 7.8), 1 mM DTT (dithiothreitol), 1 mM NADPH (reduced nicotinamide adenine dinucleotide phosphate), 0.1 mM BH4 (tetrahydrobiopterin), 10 μM FAD (flavin adenine dinucleotide), and 500 units/ml of CaM (calmodulin), and the solution was made to 100 μl. After incubation at 37° C. for 10 minutes, 0.225 ml of a reaction terminating buffer consisting of 100 mM HEPES (pH 5.1 to 5.5) and 10 mM EDTA (ethylenediaminetetraacetic acid) was added while cooling with ice to cease the enzymatic reaction. The reaction solution was passed through a column packed with 0.25 ml of Dowex 50WX-8 (Na^+ form) to remove unreacted L-arginine and the column was washed with 0.45 ml of the reaction terminating buffer to collect an effluent containing L-citrulline. The radioactivity of the effluent was measured with a liquid scintillation counter, which was taken as NOS activity, from which a 50% inhibition concentration of the test compound was obtained.

Compound `C[C@H]1CC(=N)N[C@@H]2C[C@H]12` (relative stereo) [3 (a)] registered an IC50 of 90 nM.

Regarding `C[C@H]1[C@H]2NC(=N)C[C@H](C)[C@@H]12` (relative stereo) [2 (g)], half-maximal inhibition (IC50) was put at 92 nM.

The compound `C[C@H]1CC(=N)N[C@@H]2[C@H](Cl)[C@@H]21` [compound 3] gave an IC50 of 12 nM.

As to `C[C@@H]1CC(=N)N[C@H]2C[C@@H]12` [3 (f)], the IC50 came to 180 nM.

`N=C1CC2(CCN1)CC2` [compound 7] came in with an IC50 of 200 nM.

With `C[C@H]1CC(=N)N[C@H]2[C@@H]1C2(Cl)Cl` (relative stereo) [4 (a)], the IC50 was 57 nM.

`C[C@H]1CC(=N)N[C@H]2[C@@H]1C2(C)C` (relative stereo) [compound 1] yielded an IC50 of 220 nM.

For `C[C@@H]1CC(=N)N[C@@]2(C)C[C@@H]12` (relative stereo) [3 (i)], the IC50 turned out to be 130 nM.

Compound `C[C@H]1CC(=N)N[C@@H]2[C@H](Cl)[C@@H]21` (relative stereo) [3 (c)] registered an IC50 of 20 nM.

Consider `C[C@H]1CC(=N)N[C@H]2[C@@H]1C2(Cl)Cl` (single isomer, unassigned) [compound 4], for which it took 21 nM to reach half-maximal inhibition (IC50).

With `C[C@@H]1CC(=N)N[C@@H]2C[C@H]12` (relative stereo) [3 (g)], the IC50 was determined as 47 nM.
